pIC50: −log10 of the molar value.
Legend:
[1] = molecular target: recombinant human 11β-HSD type 1 enzyme (Homo sapiens, UniProt P28845); experiment: 11β-HSD Type 1 Enzyme Assay (NADPH fluorescence); type: biochemical; settings: three hour incubation at room temperature, read-out: Human 11-βHSD1 IC50
Protocol: 11β-HSD Type 1 Enzyme Assay
Human 11β-HSD type 1 activity is measured by assaying NADPH production by fluorescence assay. Solid compounds are dissolved in DMSO to a concentration of 10 mM. Twenty microliters of each are then transferred to a column of a 96-well polypropylene Nunc plate where they are further diluted 50-fold followed by subsequent two-fold titration, ten times across the plate with additional DMSO using a Tecan Genesis 200 automated system. Plates are then transferred to a Tecan Freedom 200 system with an attached Tecan Temo 96-well head and an Ultra 384 plate reader. Reagents are supplied in 96-well polypropylene Nunc plates and are dispensed individually into black 96-well Molecular Devices High Efficiency assay plates (40 μL/well capacity) in the following fashion: 9 μL/well of substrate (2.22 mM NADP, 55.5 μM Cortisol, 10 mM Tris, 0.25% Prionex, 0.1% Triton X100), 3 μL/well of water to compound wells or 3 μL to control and standard wells, 6 μL/well recombinant human 11β-HSD type 1 enzyme, 2 μL/well of compound dilutions. […] Final DMSO concentration is 0.5% for all compounds, controls and standards. Plates are then placed on a shaker by the robotic arm of the Tecan for 15 seconds before being covered and stacked for a three hour incubation period at room temperature. Upon completion of this incubation, the Tecan robotic arm removes each plate individually from the stacker and places them in position for addition of 5 μL/well of a 250 μM carbenoxolone solution to stop the enzymatic reaction. Plates are then shaken once more for 15 seconds then placed into an Ultra 384 microplate reader (355EX/460EM) for detection of NADPH fluorescence.

[2] = molecular target: T1, 11β-HSD1 in primary human aortic smooth muscle cells (AoSMC) (Homo sapiens, UniProt P28845); experiment: Human Aortic Smooth Muscle Cell Assay (cortisone to cortisol conversion); type: cell-based; settings: hTNFα-induced 11β-HSD1, cortisol by time resolved immunoassay
T1 construct: containing 12 ng/mL hTNFα to induce expression of 11β-HSD1; endogenous in cells; host or cells: primary human aortic smooth muscle cells (AoSMC), induced with hTNFα
Protocol: Human Aortic Smooth Muscle Cell Assay
Primary human aortic smooth muscle cells (AoSMC) are cultured in 5% FBS growth medium to a passage number of 6, then pelleted by centrifugation and resuspended at a density of 9×10^4 cells/mL in 0.5% FBS assay medium containing 12 ng/mL hTNFα to induce expression of 11β-HSD1. Cells are seeded into 96-well tissue culture assay plates at 100 μL/well (9×10^3 cells/well) and incubated for 48 hours at 37° C., 5% CO2. Following induction, cells are incubated for 4 hours at 37° C., 5% CO2 in assay medium containing test compounds then treated with 10 μL/well of 10 μM cortisone solubilized in assay medium, and incubated for 16 hours at 37° C., 5% CO2. Medium from each well is transferred to a plate for subsequent analysis of cortisol using a competitive fluorescence resonance time resolved immunoassay. In solution, an allophycocyanin (APC)-cortisol conjugate and free cortisol analyte compete for binding to a mouse anti-cortisol antibody/Europium (Eu)-anti mouse IgG complex. Higher levels of free cortisol result in diminishing energy transfer from the Europium-IgG to the APC-cortisol complex resulting in less APC fluorescence. Fluorescent intensities for Europium and APC are measured using a LJL Analyst AD. Europium and APC excitation is measured using 360 nm excitation and 615 nm and 650 nm emission filters respectively. Time resolved parameters for Europuium were 1000 μs integration time with a 200 μs delay. APC parameters are set at 150 μs integration time with a 50 μs delay. Fluorescent intensities measured for APC are modified by dividing by the Eu fluorescence (APC/Eu). This ratio is then used to determine the unknown cortisol concentration by interpolation using a cortisol standard curve fitted with a 4-parameter logistic equation. These concentrations are then used to determine compound activity by plotting concentration versus % inhibition, fitting with a 4-parameter curve and reporting the IC50.

cortisone conversion = experiment: Acute In Vivo Cortisone Conversion Assay; set-up: species or system male C57BL/6 mice; settings: mice, oral dose of 10 mg/kg, cortisone challenge 30 mg/kg s.c. after 16 hours, serum cortisol by LC-MS/MS
Protocol: Acute In Vivo Cortisone Conversion Assay
In general, compounds are dosed orally into mice, the mice are challenged with a subcutaneous injection of cortisone at a set timepoint after compound injection, and the blood of each animal is collected some time later. Separated serum is then isolated and analyzed for levels of cortisone and cortisol by LC-MS/MS, followed by calculation of mean cortisol and percent inhibition of each dosing group. Specifically, male C57BL/6 mice are obtained from Harlan Sprague Dawley at average weight of 25 grams. Exact weights are taken upon arrival and the mice randomized into groups of similar weights. Compounds are prepared in 1% w-w HEC, 0.25% w-w polysorbate 80, 0.05% w-w Dow Corning antifoam #1510-US at various doses based on assumed average weight of 25 grams. Compounds are dosed orally, 200 μl per animal, followed by a subcutaneous dose, 200 μl per animal, of 30 mg/kg cortisone at 1 to 24 hours post compound dose. At 10 minutes post cortisone challenge, each animal is euthanized for 1 minute in a CO2 chamber, followed by blood collection via cardiac puncture into serum separator tubes. Once fully clotted, tubes are spun at 2500×g, 4° C. for 15 minutes, the serum transferred to wells of 96-well plates (Corning Inc, Costar #4410, cluster tubes, 1.2 ml, polypropylene), and the plates are frozen at −20° C. until analysis by LC-MS/MS. For analysis, serum samples are thawed and the proteins are precipitated by the addition of acetonitrile containing d-4-cortisol internal standard. Samples are vortex mixed and centrifuged. The supernatant is removed and dried under a stream of warm nitrogen. Extracts are reconstituted in methanol/water (1:1) and injected onto the LC-MS/MS system. The levels of cortisone and cortisol are assayed by selective reaction monitoring mode following positive ACPI ionization on a triple quadrupole mass spectrophotometer.

Chain of recombinant human 11β-HSD type 1 enzyme (P28845 whole entry): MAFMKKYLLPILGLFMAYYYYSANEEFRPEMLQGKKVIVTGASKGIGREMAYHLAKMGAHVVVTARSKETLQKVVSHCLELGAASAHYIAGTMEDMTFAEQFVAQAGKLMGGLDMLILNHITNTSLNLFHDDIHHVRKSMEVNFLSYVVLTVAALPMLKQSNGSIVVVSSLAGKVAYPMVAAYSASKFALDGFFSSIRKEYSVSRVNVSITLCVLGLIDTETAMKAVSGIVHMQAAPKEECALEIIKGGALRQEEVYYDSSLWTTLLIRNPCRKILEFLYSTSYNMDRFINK
T1 sequence (P28845 whole entry): as above

SMILES	pIC50 [1]	pIC50 [2]	% Inhibition after 16 hours (dose of 10 (mg/kg)) (cortisone conversion)
O=C1C(Cc2c(Cl)cc(-c3ccc(Cl)cc3)cc2Cl)CCN1C1CCc2nc[nH]c2C1 (stereo not shown) [Example 1, 1-(4,5,6,7-Tetrahydro-3H-benzoimidazol-5-yl)-3-(3,5,4′-trichloro-biphenyl-4-ylmethyl)-pyrrolidin-2-one]	6.49	8.17	–
O=C1C(Cc2c(Cl)cc(-c3ccc(F)cc3)cc2Cl)CCN1C1CCc2[nH]cnc2C1 (stereo not shown) [Example 15, 3-(3,5-Dichloro-4′-fluoro-biphenyl-4-ylmethyl)-1-(4,5,6,7-tetrahydro-1H-benzoimidazol-5-yl)-pyrrolidin-2-one]	6.67	8.49	–
O=C1[C@H](Cc2c(Cl)cc(-c3ccc(N4CCOCC4)cc3)cc2Cl)CCN1C1CCc2[nH]cnc2C1 (stereo partly drawn) [Example 29, (R)-3-(3,5-Dichloro-4′-morpholin-4-yl-biphenyl-4-ylmethyl)-1-(4,5,6,7-tetrahydro-1H-benzoimidazol-5-yl)-pyrrolidin-2-one]	7.12	9.22	52%

Now from value to molecule, other results behind:

pIC50 [1]	pIC50 [2]	SMILES	% Inhibition after 16 hours (dose of 10 (mg/kg)) (cortisone conversion)
6.76	8.52	O=C1[C@H](Cc2c(Cl)cc(-c3ccc(N4CCOCC4)nc3F)cc2Cl)CCN1C1CCc2[nH]cnc2C1 (stereo partly drawn) [Example 32, (R)-3-[2,6-Dichloro-4-(2-fluoro-6-morpholin-4-yl-pyridin-3-yl)-benzyl]-1-(4,5,6,7-tetrahydro-1H-benzoimidazol-5-yl)-pyrrolidin-2-one]	59.2%
6.84	8.35	O=C(c1ccc(-c2cc(Cl)c(C[C@@H]3CCN(C4CCc5nc[nH]c5C4)C3=O)c(Cl)c2)cc1)N1CCC(C(F)(F)F)CC1 (stereo partly shown) [Example 42, 3-[R]-[3,5-Dichloro-4′-(4-trifluoromethyl-piperidine-1-carbonyl)-biphenyl-4-ylmethyl]-1-(4,5,6,7-tetrahydro-3H-benzoimidazol-5-yl)-pyrrolidin-2-one]	98.4%

Reference: US7820659B2, “Cyclohexylimidiazole lactam derivatives as inhibitors of 11-β-hydroxysteroid dehydrogenase 1” (Eli Lilly and Company, priority 2006, dated 2010)
